Patent US11939361B2, “Compositions of peptide inhibitors of Interleukin-23 receptor” (Janssen Pharmaceutica NV, priority 2020, dated 2024)

Experiments:
[1] = Solubility of acetate form of SEQ ID NO: 1 in various media; type: physicochemical
Method: An acetate form of SEQ ID NO: 1 prepared according to Example 1 was evaluated for solubility under various conditions.

[2] = Dog PK Study: single PO dose of tablets/solution; conditions: peptide 10 mg/Kg, NaC10 50 mg/Kg
Method: Poloxamer P188 was also assessed, in combination with NaCl0 with the aim of determining potential synergism. […] Control tablet cores (immediate-release) without the absorption enhancers were also manufactured and dosed as control in the study.
Following dosing of tablets, 10 mL additional water was given. The normal dry diet was returned 2 hours post-dose.

[3] = Rat PK Study 2: effect of NaC10 concentration, IC injection; type: in vivo, rats; conditions: peptide 10 mg/Kg
Description: In this example, the effect of the concentration of NaCl0 was studied.

[4] = Storage of phosphate buffered solution; type: physicochemical; conditions: 0.33-33 mg/mL in 50 mM sodium phosphate buffer, 2-8° C.
Method: The resultant solution can be stored at 2-8° C. for up to 4 weeks.

[5] = tested on: IL-23-induced IL-17A secretion; assay: In vitro rat whole blood assay of IL-23-induced IL-17A secretion; type: cell-based; conditions: as quoted in Example 12

**Q.** With `CC(=O)NCCCC[C@@H]1NC(=O)[C@H](Cc2c[nH]c3c(C)cccc23)NC(=O)[C@H]([C@@H](C)O)NC(=O)[C@H](CC(N)=O)NC(=O)[C@@H](NC(C)=O)C(C)(C)SSC(C)(C)[C@@H](C(=O)N[C@@H](Cc2ccc(OCCN)cc2)C(=O)N[C@@H](Cc2ccc3ccccc3c2)C(=O)NC2(C(=O)N[C@@H](CCC(=O)O)C(=O)N[C@@H](CC(N)=O)C(=O)N[C@@H](Cc3cccnc3)C(=O)N(C)CC(N)=O)CCOCC2)NC1=O` [Acetate Form of SEQ ID NO: 1] as the molecule, how does the solubility ([1]; 0.01 N HCl, aqueous buffer) read?
**A.** 95 mg/mL

**Q.** And the solubility ([1]; 0.1 N HCl, aqueous buffer)?
**A.** 780 mg/mL

**Q.** And the solubility ([1]; 0.1 N NaOH, aqueous buffer)?
**A.** > 870 mg/mL

**Q.** And the solubility ([1]; aqueous buffer, Borate buffer pH 9)?
**A.** > 220 mg/mL

**Q.** And the solubility ([1]; aqueous buffer, Citrate buffer pH 2)?
**A.** 270 mg/mL

**Q.** What about the solubility ([1]; aqueous buffer, Citrate buffer pH 5) of the same molecule?
**A.** 6.9 mg/mL

**Q.** What about the solubility ([1]; aqueous buffer, Phosphate buffer pH 12) of the same molecule?
**A.** > 440 mg/mL

**Q.** What about the solubility ([1]; aqueous buffer, phosphate buffer pH 7) of the same molecule?
**A.** 7.5 mg/mL

**Q.** What about the solubility ([1]; water) of the same molecule?
**A.** 35 mg/mL

**Q.** And the “effect of NaC10 on systemic exposure, all tablets” value [2]?
**A.** increased

**Q.** And the “increase of systemic exposure given by NaC10” value ([3]; NaC10 20 mg/Kg)?
**A.** minimal

**Q.** And the “absorption enhancement by NaC10” value ([3]; NaC10 50 mg/Kg)?
**A.** highest absorption enhancement

**Q.** What about the “oral bioavailability on increasing NaC10” value ([3]; NaC10 100 mg/Kg or 200 mg/Kg) of the same molecule?
**A.** did not further increase

**Q.** And the “effect of NaC10 on systemic exposure” value ([3]; all NaC10 concentrations tested (20, 50, 200 mg/Kg))?
**A.** increased

**Q.** And the “Storage time of solution” value [4]?
**A.** up to 4 weeks

**Q.** And the “IC50 values presented in Table 14” value [5]?
**A.** 0.10 to 0.47 ng/mL

**Q.** What about the IC50 ([5]; read-out: IC50 values presented in Table 14) of the same molecule?
**A.** 0.054 to 0.5 nM
